# Measurements as given in PubChem BioAssay AID328 (DTP/NCI, 2004).
# “And” between values parts separate entries of the source, which are not always exact repeats. Identical values can stand only once. Inconclusive results and toxic doses are left out.
# System: BDF1 mice, P388 leukemia ip, median survival T/C
# Assay: NCI In Vivo Anticancer Drug Screen. Data for tumor model P388 Leukemia (intraperitoneal) in B6D2F1 (BDF1) mice
# Details: endpoint: median survival time, higher = longer survival
# How it was run: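 Antitumour effect was judged in vivo: survival in drug-treated mice, normalised to that of vehicle-dosed controls, gives the reported T/C.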
# [1] = dose: 100.0 mg/kg/injection, schedule: Q04DX003 (ip), vehicle: saline with Tween-80
# [2] = dose: 200.0 mg/kg/injection, schedule: Q04DX003 (ip), vehicle: saline with Tween-80
# [3] = dose: 400.0 mg/kg/injection, schedule: Q04DX003 (ip), vehicle: saline with Tween-80
# [4] = dose: 100.0 mg/kg/injection, schedule: Q04DX003 (ip), vehicle: saline
# [5] = dose: 100.0 mg/kg/injection, schedule: Q01DX009 (ip), vehicle: saline
# [6] = dose: 100.0 mg/kg/injection, schedule: Q01DX009 (ip), vehicle: Klucel (hydroxypropylcellulose) (HPC)
compound,measurement,setting,value
Oc1ccccc1-c1nnc2sc3c(Cl)c4nn5c(-c6ccccc6O)nnc5sc4c(Cl)c3nn12,T/C,"dose: 50.0 mg/kg/injection, schedule: Q01DX009 (ip), vehicle: saline with Tween-80",98 % of control
same,T/C,"dose: 100.0 mg/kg/injection, schedule: Q01DX009 (ip), vehicle: saline with Tween-80",98 % of control
same,T/C,"dose: 200.0 mg/kg/injection, schedule: Q01DX009 (ip), vehicle: saline with Tween-80",96 % of control
CCOC(CNC(=O)NC1CCCCC1)OCC,T/C,[1],90 % of control
same,T/C,[2],90 % of control
same,T/C,[3],90 % of control
Nc1ncns1,T/C,"dose: 50.0 mg/kg/injection, schedule: Q04DX003 (ip), vehicle: saline",101 % of control
same,T/C,[4],120 % of control
O=[N+]([O-])c1ccc(N2CCOCC2)c2c1no[n+]2[O-],T/C,"dose: 6.25 mg/kg/injection, schedule: Q01DX009 (ip), vehicle: saline",95 % of control
same,T/C,"dose: 12.5 mg/kg/injection, schedule: Q01DX009 (ip), vehicle: saline",100 % of control
same,T/C,"dose: 25.0 mg/kg/injection, schedule: Q01DX009 (ip), vehicle: saline",108 % of control
same,T/C,"dose: 32.0 mg/kg/injection, schedule: Q04DX003 (ip), vehicle: saline with Tween-80",150 % of control
same,T/C,"dose: 64.0 mg/kg/injection, schedule: Q04DX003 (ip), vehicle: saline with Tween-80",160 % of control
CC(C)CSP(=S)(c1cc(Cl)ccc1Cl)c1cc(Cl)ccc1Cl,T/C,"dose: 50.0 mg/kg/injection, schedule: Q01DX009 (ip), vehicle: other",102 % of control
same,T/C,"dose: 100.0 mg/kg/injection, schedule: Q01DX009 (ip), vehicle: other",101 % of control
same,T/C,"dose: 200.0 mg/kg/injection, schedule: Q01DX009 (ip), vehicle: other",105 % of control
O=C(c1ccccn1)C12CC3CC(CC(C3)C1)C2,T/C,[1],95 % of control
same,T/C,[2],105 % of control
same,T/C,[3],95 % of control
CCN(CC)c1ccc(C(=C(c2ccc(N(CC)CC)cc2)c2ccc(N(CC)CC)cc2)c2ccc(N(CC)CC)cc2)cc1,T/C,"dose: 50.0 mg/kg/injection, schedule: Q04DX003 (ip), vehicle: Klucel (hydroxypropylcellulose) (HPC)",100 % of control
same,T/C,"dose: 100.0 mg/kg/injection, schedule: Q04DX003 (ip), vehicle: Klucel (hydroxypropylcellulose) (HPC)",104 % of control
same,T/C,"dose: 200.0 mg/kg/injection, schedule: Q04DX003 (ip), vehicle: Klucel (hydroxypropylcellulose) (HPC)",90 % of control
CCCCCCC(N)C(C)=O (configuration not stated),T/C,"dose: 50.0 mg/kg/injection, schedule: Q01DX009 (ip), vehicle: saline",93 % of control
same,T/C,[5],95 % of control
O=C(Nc1ccc([N+](=O)[O-])cc1)Nc1ccc([N+](=O)[O-])cc1 (tested in a mixture with another compound),T/C,[5],109 % of control
same,T/C,[4],112 % of control and 104 % of control
same,T/C,"dose: 200.0 mg/kg/injection, schedule: Q01DX009 (ip), vehicle: saline",122 % of control
same,T/C,"dose: 200.0 mg/kg/injection, schedule: Q04DX003 (ip), vehicle: saline",100 % of control and 91 % of control
same,T/C,"dose: 400.0 mg/kg/injection, schedule: Q01DX009 (ip), vehicle: saline",118 % of control
same,T/C,"dose: 400.0 mg/kg/injection, schedule: Q04DX003 (ip), vehicle: saline",112 % of control and 100 % of control
COc1ccc(C(=O)C(C)C(O)(C(F)(F)F)C(F)(F)F)cc1 (configuration not stated),T/C,"dose: 100.0 mg/kg/injection, schedule: Q01DX001 (ip), vehicle: Klucel (hydroxypropylcellulose) (HPC)",109 % of control
same,T/C,"dose: 200.0 mg/kg/injection, schedule: Q01DX001 (ip), vehicle: Klucel (hydroxypropylcellulose) (HPC)",109 % of control
same,T/C,"dose: 400.0 mg/kg/injection, schedule: Q01DX001 (ip), vehicle: Klucel (hydroxypropylcellulose) (HPC)",109 % of control
CC1=NN(c2ccccc2)C(=O)/C1=C\c1ccc(N(CCC#N)CCC#N)cc1,T/C,"dose: 50.0 mg/kg/injection, schedule: Q01DX009 (ip), vehicle: Klucel (hydroxypropylcellulose) (HPC)",87 % of control
same,T/C,[6],93 % of control
same,T/C,"dose: 200.0 mg/kg/injection, schedule: Q01DX009 (ip), vehicle: Klucel (hydroxypropylcellulose) (HPC)",87 % of control
same,T/C,"dose: 400.0 mg/kg/injection, schedule: Q01DX009 (ip), vehicle: Klucel (hydroxypropylcellulose) (HPC)",91 % of control
Cc1ccc(SS(=O)(=O)c2ccc(C)cc2)cc1,T/C,"dose: 25.0 mg/kg/injection, schedule: Q01DX009 (ip), vehicle: saline sonified",108 % of control
same,T/C,"dose: 50.0 mg/kg/injection, schedule: Q01DX009 (ip), vehicle: saline sonified",117 % of control
same,T/C,"dose: 100.0 mg/kg/injection, schedule: Q01DX009 (ip), vehicle: saline sonified",117 % of control
OCC1OC(n2cnc3c(NO)ncnc32)C(O)C1O (configuration not stated),T/C,"dose: 12.5 mg/kg/injection, schedule: Q01DX009 (ip), vehicle: Klucel (hydroxypropylcellulose) (HPC)",108 % of control
same,T/C,[6],108 % of control
